{
  "source": "patent US4749559A",
  "about": "“Method for detecting melanin-containing matter” (United States of America, priority 1986, dated 1988)",
  "key": {"[1]": {"system": "B16 melanoma", "assay": "In vitro binding of [125I]BZZ to homogenate of B16 melanoma", "design": "species or system mouse", "protocol": "(§1) A tissue homogenate rather than washed particulate material was used for the assay. The assay system (final volume 200 μ) contained Tris-HCl (pH 7.4), 80 mM; ethyleneglyco-bis-(β-aminoethyl ether) N,N',tetraacetic (EGTA), 0.8 mM and MgSO4, 10 mM; radiolabeled ligand (40,000 cpm, 60 pM) and the unlabeled ligand as required for competitive assay; and incubations were performed at 25° C. for about 60 min. When binding to striatum and to tumor were compared, binding to homogenates of both tissues was determined simultaneously. In order to determine the reproducibility of the results, ligand binding was determined in 3 replicate samples for each experimental condition. The mean of these three values was taken as a single errorless value and the mean of three (or more) of such values from independent experiments is reported. Data represent mean ± SE."}, "[2]": {"biological_target": "T1, D-1 dopamine receptor (Mus musculus, UniProt Q61616)", "T1 construct": "homogenate of the caudate putamen of the Swiss Webster mouse brain; from tissue; host or cells: caudate-putamen homogenate, Swiss Webster mouse brain", "T1 sequence (Q61616 whole entry)": "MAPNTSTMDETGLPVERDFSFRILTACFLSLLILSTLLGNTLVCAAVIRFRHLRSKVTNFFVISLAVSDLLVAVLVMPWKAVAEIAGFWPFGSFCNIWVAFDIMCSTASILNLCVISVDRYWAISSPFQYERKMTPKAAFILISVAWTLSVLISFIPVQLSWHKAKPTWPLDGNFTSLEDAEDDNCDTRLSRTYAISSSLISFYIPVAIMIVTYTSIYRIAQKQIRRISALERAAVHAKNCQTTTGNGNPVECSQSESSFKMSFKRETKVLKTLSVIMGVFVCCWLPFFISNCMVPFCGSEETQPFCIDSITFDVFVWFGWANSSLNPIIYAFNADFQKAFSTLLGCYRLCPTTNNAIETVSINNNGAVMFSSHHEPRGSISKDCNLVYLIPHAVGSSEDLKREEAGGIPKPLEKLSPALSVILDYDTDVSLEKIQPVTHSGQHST", "assay": "In vitro binding of [125I]BZZ to homogenate of caudate putamen (competition with unlabeled SCH23390 enantiomers)", "conditions": "FIG. 4A", "protocol": "as §1"}, "[3]": {"system": "B16 melanoma", "assay": "In vitro autoradiography of frozen sections of B16 melanoma", "assay_type": "binding, mouse", "conditions": "200 pM ligand; FIG. 6 left", "protocol": "(§2) After animals were killed, the brain, eyes or tumor were immediately removed and frozen on dry ice. Frozen, 16 μthick sections were cut in a cryostat at -16° C., thaw-mounted onto gelatin-coated slides and stored overnight under vacuum at 4° C. The tissue sections were preincubated for 15 min in 50 mM Tris-HCl buffer, pH 7.4, for 15 min and then incubated for 20 min in a solution containing 50 mM Tris-HCl, pH 7.4, 120 mM NaCl, 5 mM KCl, 2 mM CaCl2, 1 mM MgCl2 and 200 pM iodinated ligand (either R or S enantiomer). After incubation, the slides were washed 4 times in ice-cold 50 mM Tris-HCl buffer and dried under a stream of air. Autoradiographic images were produced by placing the slides in X-ray casettes and using them to expose [^3 H]ultra film for 15 hours following standard procedure."}, "[4]": {"system": "human melanoma", "assay": "In vitro autoradiography of frozen sections of human melanoma (lymph node)", "assay_type": "binding", "conditions": "lymph node with pigmented metastatic melanoma; 200 pM ligand; FIG. 6 right", "protocol": "as §2"}, "[5]": {"system": "caudate nucleus of the rat brain", "assay": "Binding of [125I]BZZ enantiomers to homogenate of caudate nucleus", "conditions": "FIG. 5", "protocol": "as §1"}, "[6]": {"system": "B16 melanoma", "assay": "Noninvasive imaging of [125I] with pinhole collimator and gamma camera", "assay_type": "in vivo, mouse", "conditions": "tumor-bearing and nontumor-bearing mice; 50 μCi intravenous; FIG. 2", "protocol": "Mice received a bolus injection of [^125 I]BZZ (50 μCi) dissolved in Hank's balanced salt solution via the tail vein. At several times, the distribution of [^125 I]was determined by imaging with a pinhole collimeter attached to a gamma camera (Raytheon Nuclear Diagnostics)."}, "[7]": {"assay": "In vivo accumulation of radiolabel in eyes of pigmented and albino mice", "design": "species or system mouse", "protocol": "(§3) Radiolabeled ligand was dissolved in Hank's balanced salt solution and administered via the tail vein as a bolus of 100 μl. At appropriate times, the animals were sacrificed and various organs removed. The amount of ^125 I radioactivity within a given organ was determined with a gamma counter.\nas §2"}, "[8]": {"system": "B16 melanoma", "assay": "In vivo accumulation of intravenously administered radiolabel in B16 melanoma (gamma counting, autoradiography)", "design": "species or system mouse", "protocol": "The B16 melanoma was removed from the host mouse, washed in a balanced salt solution and then cut into small fragments (approximately 2 mm cubes). A tumor fragment was then implanted subcutaneously with a trochar into either the back or hind limb of the recipient mouse (either a C57/B16 or Swiss-Webster). Tumors could be easily seen within 2 to 3 weeks after implantation of the tumor fragment.\nas §3, §2"}, "[9]": {"assay": "In vitro autoradiography of frozen section of retina", "assay_type": "binding, mouse", "conditions": "FIG. 3C", "protocol": "as §2\nEmulsion autoradiography was performed as follows: a flexible coverslip coated with NTB-3 (Kodak) was exposed to the tissue section; when the exposure was complete in about a day (about 24 hrs) the emulsion was developed at 4° for 2 min in D-19 developer. The section was stained with hematoxylin and eosin and the coverslip was reexposed to the stained section."}, "[10]": {"conditions": "mouse given B16 melanoma cells intravenously 3 weeks earlier, 50 μCi, autoradiogram FIG. 1D, E"}},
  "data": [
    {"smiles": "CN1CCc2cc(Cl)c(O)cc2C(c2ccccc2)C1", "note": "(centres unmarked) [2,3,4,5-tetrahydro-8-chloro-3 methyl-5-phenyl-1H-3 benzazepin-7-ol]", "values": [
      {"measurement": "displacement of [125I]BZZ from melanoma tissue", "setting": "[1]", "result": "effectively displaced"}
    ]},
    {"smiles": "CN1CCc2cc(Cl)c(O)cc2[C@@H](c2ccccc2)C1", "note": "[R-enantiomer, reference compound]", "values": [
      {"measurement": "affinity for R-enantiomer relative to S-enantiomer", "setting": "[2]; D-1 receptor in caudate nucleus, displacement of [125I]BZZ", "result": 100, "unit": "fold"},
      {"measurement": "concentration required to displace [125I]BZZ from melanoma binding site relative to D-1 dopamine receptor", "setting": "[1]; B16 melanoma versus caudate homogenate, FIGS. 4A and B", "result": 400, "unit": "fold"},
      {"measurement": "difference between R- and S-enantiomers", "setting": "[1]; binding site in B16 melanoma, displacement of [125I]BZZ, FIG. 4B", "result": 5.1, "unit": "fold"}
    ]},
    {"smiles": "CN1CCc2cc([125I])c(O)cc2[C@H](c2ccccc2)C1", "note": "[[^125 I]-S-BZZ]", "values": [
      {"measurement": "binding to frozen sections of murine B16 melanoma", "setting": "[3]", "result": "bound to frozen sections"},
      {"measurement": "binding to metastatic human melanoma (frozen section autoradiogram)", "setting": "[4]", "result": "effectively bind"},
      {"measurement": "binding to pigmented B16 melanoma homogenate", "setting": "[1]; compared with R-enantiomer, FIG. 5", "result": "to the same degree as did its R-enantiomer"},
      {"measurement": "binding to homogenate of caudate nucleus", "setting": "[5]", "result": "failed to bind"}
    ]},
    {"smiles": "CN1CCc2cc([125I])c(O)cc2[C@@H](c2ccccc2)C1", "note": "[[^125 I]BZZ]", "values": [
      {"measurement": "binding to frozen sections of murine B16 melanoma", "setting": "[3]", "result": "bound to frozen sections"},
      {"measurement": "accumulation within the abdomen", "setting": "[6]", "result": "substantial accumulation"},
      {"measurement": "amount of bound radioactivity corresponding to 100 percent", "setting": "[2]; homogenate of caudate putamen of Swiss Webster mouse brain", "result": "23,379±555 cpm/mg wet wt"},
      {"measurement": "binding to metastatic human melanoma (frozen section autoradiogram)", "setting": "[4]", "result": "effectively bind"},
      {"measurement": "localization of radiolabel within the pigmented eye (autoradiography)", "setting": "[7]; 50 μCi, 45 min, FIG. 3B", "result": "accumulated predominantly in a narrow band at the back of the pigmented eye"},
      {"measurement": "difference between amount of radiolabel accumulated in pigmented and albino eyes", "setting": "[7]; C57B1/6 versus Swiss Webster mouse, 10 μCi intravenous, P<0.001", "result": 79, "unit": "fold"},
      {"measurement": "amount of bound radioactivity corresponding to 100 percent", "setting": "[1]; homogenate of B16 melanoma propagated in Swiss Webster mice, FIG. 4B", "result": "18,033±3,647 cpm/mg wet weight"},
      {"measurement": "concentration of radiolabel within B-16 melanoma relative to nonpigmented eye", "setting": "[8]; albino mouse, 10 μCi intravenous, within 45 min, p<0.001", "result": 19, "unit": "times"},
      {"measurement": "accumulation of radiolabel in tumor versus surrounding tissues (autoradiograph)", "setting": "[8]; frozen section of B16 melanoma after intravenous administration, FIG. 1B, C", "result": "much higher degree than within the surrounding tissues"},
      {"measurement": "accumulation of radiolabel in foci of pigmented cells of lung (metastatic melanoma)", "setting": "[8]; [10]", "result": "heavy accumulation of radiolabel"},
      {"measurement": "binding of ligand to normal lung tissue", "setting": "[8]; [10]", "result": "does not bind the ligand"},
      {"measurement": "localization of radiolabel in frozen section of retina exposed to ligand in vitro", "setting": "[9]", "result": "highly concentrated within the melanin containing pigment epithelium"}
    ]}
  ]
}
